These results are taken from US6479537B2, “Synergistic ectoparasiticidal methods and compositions” (American Cyanamid Company, priority 2000, dated 2002).

Converted amounts (≈) assume the structure as drawn. “And” between values parts separate entries of the source, which are not always exact repeats. Equal values may be shown once.

This series has as its system newly emerged larvae of the blowfly, Lucilia sericata. Kind of series: treated paper/serum bioassay, contact and/or ingestion activity against newly emerged blowfly larvae. It is filed as in vivo. The settings on record: single compound. The protocol:
Contact and/or ingestion activities of compounds against newly emerged larvae of the blowfly, Lucilia sericata, are tested using a treated paper/serum bioassay. In this assay, test compounds diluted to the required concentrations in acetone are applied to filter paper discs and allowed to dry. Bovine serum and newly emerged blowfly larvae are added to the discs and mortality assessed at 24 and 48 hours.

Where [1] appears, read: larval mortality assessed at 48 hours.

As to `CCOCn1c(-c2ccc(Cl)cc2)c(C#N)c(Br)c1C(F)(F)F` [C, 4-bromo-2-(p-chlorophenyl)-1-(ethoxymethyl)-5-(trifluoromethyl)pyrrole-3-carbonitrile], for the setting “Lucilia sericata, 48 h, larval mortality assessed at 48 hours, read-out: Approximate LC50 48 hour”, the LC50 came to 2.5 µg/mL (≈ 6.13 µM). Also, the “Approximate LC50 48 hour” value under setting [1] was determined as 4.69 µg/mL.
Take moxidectin: where the note is “larval mortality assessed at 24 hours”, the “Approximate LC50 24 hour” value was 1.54 µg/mL and 0.85 µg/mL. For the same compound, the “Approximate LC50 48 hour” value under setting [1] is 0.80 µg/mL and 0.63 µg/mL.
